Legend:
CDK7Cyclin H/MAT1 = molecular target: T1, CDK7Cyclin H/MAT1 (Homo sapiens, UniProt P50613); test: Kinase inhibition assay with [γ-33P]ATP; assay type: biochemical; details: (YSPTSPS)2KK peptide, 1.5 μM ATP; read-out: IC50 values (μM) CDK7
T1 construct: purchased ProQinase GmbH

[1] = test system: FLT3 (FLT3-ITD) in MV4-11 cells; test: Immunoblotting of FLT3 phosphorylation in MV4-11 cells; assay type: cell-based; details: MV4-11 FLT3-ITD cells, 1 hour treatment, immunoblotting (FIG. 1)
Method: Cells were exposed for 1 hour to the indicated concentrations of 264 or 270 and then levels of phosphorylations at specific tyrosine residues of FLT3 were analyzed.
To confirm kinase-inhibitory activity of novel compounds in cells, MV4-11 cells with FLT3-ITD and EOL-1 cells expressing FIP1L1-PDGFRA fusion protein were analyzed upon 1 hour treatment. Treated cells were harvested by centrifugation and homogenized in an extraction buffer (10 mM HEPES pH 7.4, 1 mM EDTA, 1 mM EGTA, 5 mM KC, 1.5 mM MgCl2, 0.5% NP40, supplemented with 1 mM DTT, 1 mM NaF, 0.1 mM Na3VO4, 1 mM PMSF, 0.5 μg/ml Leupeptin, 2 μg/ml Aprotinin) on ice for […]. The homogenates were clarified by centrifugation at 10,000 g for 30 min at 4° C., proteins were quantified by the Bradford method and then diluted to the same concentration. […] of total proteins were separated by SDS-polyacrylamide gel electrophoresis and transferred onto nitrocellulose membranes. […]

[2] = test system: ERK1/2, STAT5 and STAT3 phosphorylation in MV4-11 cells; test: Immunoblotting of signaling downstream of FLT3 in MV4-11 cells; assay type: cell-based; details: 1 hour (FIG. 3)
Method: (§1) To confirm kinase-inhibitory activity of novel compounds in cells, MV4-11 cells with FLT3-ITD and EOL-1 cells expressing FIP1L1-PDGFRA fusion protein were analyzed upon 1 hour treatment. Treated cells were harvested by centrifugation and homogenized in an extraction buffer (10 mM HEPES pH 7.4, 1 mM EDTA, 1 mM EGTA, 5 mM KC, 1.5 mM MgCl2, 0.5% NP40, supplemented with 1 mM DTT, 1 mM NaF, 0.1 mM Na3VO4, 1 mM PMSF, 0.5 μg/ml Leupeptin, 2 μg/ml Aprotinin) on ice for […]. The homogenates were clarified by centrifugation at 10,000 g for 30 min at 4° C., proteins were quantified by the Bradford method and then diluted to the same concentration. […] of total proteins were separated by SDS-polyacrylamide gel electrophoresis and transferred onto nitrocellulose membranes. Membranes were blocked in 5% BSA in TBS with 0.1% Tween 20 and probed overnight with specific antibodies for FLT3 (clone 8F2), phospho-FLT3 Y589/591 (30D4), phospho-FLT3 Y591 (33G6), phospho-FLT3 Y842 (10A8), phospho-FLT3 Y969 (C24D9), PDGFRA (D1E1E), phospho-PDGFRA Y849/PDGFRB Y857 (C43E9), phospho-PDGFRA Y1018, p44/42 MAPK (ERK1/2), phospho-p44/42 MAPK (ERK1/2) (Thr202/Tyr204), STAT5, Phospho-STAT5(Tyr694), STAT3 (79D7), phospho-STAT3 (Tyr705) (D3A7), MEK1/2 (D1A5), phospho-MEK1/2 (Ser217/221) purchased from Cell Signaling, USA, α-tubulin (DM1A, Sigma Aldrich, USA) and PCNA (PC-10, gifted by Dr. B. Vojtesek). […]

[3] = test system: ERK1/2, STAT5 and STAT3 phosphorylation in EOL-1 cells; test: Immunoblotting of signaling downstream of PDGFR in EOL-1 cells; assay type: cell-based; details: 1 hour (FIG. 4)
Method: as §1

[4] = test system: FLT3 phosphorylation in MV4-11 xenograft; test: MV4-11 xenograft target modulation, pFLT3 immunoblot; assay type: in vivo, mice
Method: (§2) Female athymic nu/nu mice (8 weeks old) were subcutaneously implanted with 5×10^6 MV4-11 cells in 1:1 mixture with Matrigel (High concentration basement membrane Matrigel, Corning) into the hind flank on day 0. Tumors were allowed to growth to the volume of 500-800 mm^3. Body weight and tumor size were recorded 3 times a week. Mice were randomized to treatment groups, 4 to 5 mice each, for target modulation studies.
(§3) Mice were sacrificed at 2 time points (2 hours and 24 hours) after treatment. Tumors were resected and mechanically disintegrated. Cells were washed twice with PBS (lx), then lysed in ice-cold lysis buffer (10 mM HEPES pH 7.4, 1 mM EDTA, 1 mM EGTA, 5 mM KCl, 1.5 mM MgCl2) supplemented with protease and phosphatase inhibitors (10 mM β-glycerolphosphate; 1 mM NaF; 0.1 mM Na3VO4; 0.1 mM PMSF; 10 μg/ml Leupeptin; 2 μg/ml Aprotinin; 1 mM DTT) and cleared by centrifugation. Samples (50 μg of total protein amount) were separated on SDS-PAGE, followed by transfer of the separated proteins to nitrocellulose membrane.

[5] = test system: STAT5 phosphorylation in MV4-11 xenograft; test: MV4-11 xenograft target modulation, pSTAT5 immunoblot; assay type: in vivo, mice; details: single dose 10 mg/kg intraperitoneal, after 24 hours
Method: as §2, §3

T1 sequence (P50613 whole entry): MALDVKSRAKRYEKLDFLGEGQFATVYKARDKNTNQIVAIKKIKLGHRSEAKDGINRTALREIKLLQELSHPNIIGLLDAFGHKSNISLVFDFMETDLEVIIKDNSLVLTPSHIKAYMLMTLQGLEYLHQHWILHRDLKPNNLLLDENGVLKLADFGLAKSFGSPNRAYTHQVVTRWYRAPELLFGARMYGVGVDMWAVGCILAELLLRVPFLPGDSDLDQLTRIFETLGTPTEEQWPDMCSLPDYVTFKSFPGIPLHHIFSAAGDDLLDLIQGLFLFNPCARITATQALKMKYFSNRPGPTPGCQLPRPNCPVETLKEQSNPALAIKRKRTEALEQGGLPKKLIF
T1 sequence (P51946 whole entry partner): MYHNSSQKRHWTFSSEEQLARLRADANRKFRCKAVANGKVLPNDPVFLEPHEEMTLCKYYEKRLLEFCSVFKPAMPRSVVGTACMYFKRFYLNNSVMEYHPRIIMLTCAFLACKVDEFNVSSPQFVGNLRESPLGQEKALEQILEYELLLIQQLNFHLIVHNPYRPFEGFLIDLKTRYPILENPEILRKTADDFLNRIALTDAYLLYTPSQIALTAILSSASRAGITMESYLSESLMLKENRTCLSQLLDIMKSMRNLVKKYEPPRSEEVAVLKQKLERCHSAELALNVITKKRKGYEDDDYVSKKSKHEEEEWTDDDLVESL
T1 sequence (P51948 whole entry partner): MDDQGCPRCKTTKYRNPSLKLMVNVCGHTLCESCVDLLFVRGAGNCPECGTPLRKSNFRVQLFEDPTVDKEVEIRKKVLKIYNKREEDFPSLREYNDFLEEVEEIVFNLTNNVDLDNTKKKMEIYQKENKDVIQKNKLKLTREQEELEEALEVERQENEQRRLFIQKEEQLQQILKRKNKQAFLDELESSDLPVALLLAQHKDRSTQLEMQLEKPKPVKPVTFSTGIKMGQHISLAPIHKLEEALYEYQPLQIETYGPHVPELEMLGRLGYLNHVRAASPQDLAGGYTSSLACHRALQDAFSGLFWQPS

Row | Structure (SMILES) | IC50 (CDK7Cyclin H/MAT1) [µM] | phosphorylation of tyrosine residues of FLT3 receptor kinase (including Y589, Y591, Y742) [1] | phosphorylation of ERK1/2, STAT5 and STAT3 [2] | phosphorylation of ERK1/2, STAT5 and STAT3 [3] | inhibition of pFLT3 in tumor ([4]; nu/nu mice, single dose 10 mg/kg intraperitoneal, 2 hours after administration) [%] | pFLT3 level in tumor at 24 hours ([4]; single dose 10 mg/kg (264 intraperitoneal, Quizartinib oral gavage), 24 hours) | reduction of pSTAT5 level in tumor [5]
1 | CN1CC2(C1)CN(c1ccc(Nc3nc(NC4CCC(O)CC4)nc4c3ncn4C3CCCC3)cc1)C2 (centres unmarked) [Compound 7] | 0.197 | – | – | – | – | – | –
2 | NC1CCC(Nc2nc(Nc3ccc(CN4CCOCC4)cc3)c3ncn(C4CCCC4)c3n2)CC1 (centres unmarked) [Compound 264] | 0.178 | cellular FLT3 dephosphorylation | reduced phosphorylation | reduced phosphorylation | 95 | the inhibition sustained 24 hours | more than 95%
3 | NCCCCNc1nc(Nc2ccc(CN3CCOCC3)cc2)c2ncn(C3CCCC3)c2n1 [Compound 270] | – | cellular FLT3 dephosphorylation | reduced phosphorylation | reduced phosphorylation | – | – | –

Source: patent US11028087B2, “2,6-disubstituted-9-cyclopentyl-9H-purines, use thereof as medicaments, and pharmaceutical compositions” (UNIVERZITA PALACKEHO V OLOMOUCI, priority 2017, dated 2021)
